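Exposure lasted 48 hours, with cells grown in 96-well plates and compounds tested at five concentrations. At the GI50, growth is halved.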 Activity calls are given as the source filed them. Cut-off read from the data, not from the text of the source: active = GI50 up to about 1.1 µM and inactive = higher. Residues, ends and D or L forms follow the SMILES beside them. *: point of attachment. Boc = CC(C)(C)OC(=O)*; OBn = c1ccc(CO*)cc1
Experiments:
Assay in all cases: growth of human tumour cells (NCI), 48 h
OVCAR-4 = test system: OVCAR-4
SF-295 = test system: SF-295
SK-MEL-28 = test system: SK-MEL-28
NCI-H522 = test system: NCI-H522
SN12C = test system: SN12C
SR = test system: SR
NCI-H460 = test system: NCI-H460
HT-29 = test system: HT-29
A498 = test system: A498
NCI-H226 = test system: NCI-H226
MOLT-4 = test system: MOLT-4
SK-MEL-2 = test system: SK-MEL-2
SF-268 = test system: SF-268
UACC-62 = test system: UACC-62
HL-60 = test system: HL-60
CAKI-1 = test system: CAKI-1
ACHN = test system: ACHN
MDA-MB-435 = test system: MDA-MB-435
TK-10 = test system: TK-10

Row | SMILES | GI50 (OVCAR-4) | GI50 (SF-295) | GI50 (SK-MEL-28) | GI50 (NCI-H522) | GI50 (SN12C) | GI50 (SR) | GI50 (NCI-H460) | GI50 (HT-29) | GI50 (A498) | GI50 (NCI-H226) | GI50 (MOLT-4) | GI50 (SK-MEL-2) | GI50 (SF-268) | GI50 (UACC-62) | GI50 (HL-60) | GI50 (CAKI-1) | GI50 (ACHN) | GI50 (MDA-MB-435) | GI50 (TK-10)
1 | Cc1ccc2nc(-c3ccc(N)c(Br)c3)sc2c1 | 33.5 µM (inactive) | 34.8 µM (inactive) | > 100 µM (inactive) | 0.875 µM (active) | > 100 µM (inactive) | 11 µM (inactive) | 5.6 µM (inactive) | 40.7 µM (inactive) | > 100 µM (inactive) | 17.5 µM (inactive) | 4.33 µM (inactive) | 27.9 µM (inactive) | 10.6 µM (inactive) | 23.8 µM (inactive) | 17.4 µM (inactive) | 34.8 µM (inactive) | 36.3 µM (inactive) | 5.4 µM (inactive) | –
2 | COc1ccc(CNC(C)C(=O)O)cc1 (configuration not stated) | > 100 µM (inactive) | > 100 µM (inactive) | > 100 µM (inactive) | > 100 µM (inactive) | > 100 µM (inactive) | > 100 µM (inactive) | > 100 µM (inactive) | > 100 µM (inactive) | > 100 µM (inactive) | > 100 µM (inactive) | > 100 µM (inactive) | > 100 µM (inactive) | > 100 µM (inactive) | > 100 µM (inactive) | > 100 µM (inactive) | > 100 µM (inactive) | > 100 µM (inactive) | > 100 µM (inactive) | > 100 µM (inactive)
3 | CC(=O)Nc1cccc(N2C(=O)/C(=C\c3cccc(Oc4ccccc4)c3)S(=O)(=O)C2c2ccccc2)c1 (configuration not stated) | 25.2 µM (inactive) | 46.5 µM (inactive) | > 100 µM (inactive) | 69 µM (inactive) | > 100 µM (inactive) | 15.9 µM (inactive) | > 100 µM (inactive) | 64.9 µM (inactive) | > 100 µM (inactive) | > 100 µM (inactive) | 16.1 µM (inactive) | 55.6 µM (inactive) | – | 43.6 µM (inactive) | 18.9 µM (inactive) | 53.5 µM (inactive) | > 100 µM (inactive) | 34 µM (inactive) | > 100 µM (inactive)
4 | CC(C)(C)OC(=O)NC(Cc1ccc(OCc2ccccc2)cn1)C(=O)O (configuration not stated) | > 100 µM (inactive) | > 100 µM (inactive) | > 100 µM (inactive) | 67 µM (inactive) | > 100 µM (inactive) | > 100 µM (inactive) | > 100 µM (inactive) | > 100 µM (inactive) | > 100 µM (inactive) | > 100 µM (inactive) | – | – | > 100 µM (inactive) | – | > 100 µM (inactive) | > 100 µM (inactive) | > 100 µM (inactive) | > 100 µM (inactive) | > 100 µM (inactive)
5 | CCOC(CBr)OC1C(=O)OCC1(C)C (configuration not stated) | > 100 µM (inactive) | > 100 µM (inactive) | > 100 µM (inactive) | > 100 µM (inactive) | > 100 µM (inactive) | > 100 µM (inactive) | > 100 µM (inactive) | > 100 µM (inactive) | > 100 µM (inactive) | > 100 µM (inactive) | > 100 µM (inactive) | > 100 µM (inactive) | > 100 µM (inactive) | > 100 µM (inactive) | > 100 µM (inactive) | > 100 µM (inactive) | > 100 µM (inactive) | > 100 µM (inactive) | > 100 µM (inactive)
6 | CC(C)CC(NC(=O)OC(C)(C)C)C(=O)NC(CC(=O)OCc1ccccc1)C(=O)OCc1ccccc1 (stereo not drawn) (Boc-Leu-Asp(OBn)-OBn; configuration not given here) | – | 43.7 µM (inactive) | – | 27.9 µM (inactive) | 22.4 µM (inactive) | 25.8 µM (inactive) | 30.8 µM (inactive) | 37.5 µM (inactive) | > 100 µM (inactive) | 57.9 µM (inactive) | 31 µM (inactive) | 63 µM (inactive) | 41.8 µM (inactive) | 21.9 µM (inactive) | 26.1 µM (inactive) | > 100 µM (inactive) | – | 40.1 µM (inactive) | 21.3 µM (inactive)
7 | N#CCN(Cc1ccccc1)[C@@H]1CCC[C@]1(O)C#Cc1ccc2c(c1)OCO2 | 15 µM (inactive) | 19.8 µM (inactive) | 17.1 µM (inactive) | 16.1 µM (inactive) | – | 17.8 µM (inactive) | 16.1 µM (inactive) | 18.2 µM (inactive) | 20.3 µM (inactive) | 18.6 µM (inactive) | 16.4 µM (inactive) | 16.4 µM (inactive) | 19.1 µM (inactive) | 16.1 µM (inactive) | 20.6 µM (inactive) | 22.2 µM (inactive) | 18 µM (inactive) | 18.5 µM (inactive) | 21.1 µM (inactive)
8 | CC[P+](C#Cc1ccccc1)(c1ccccc1)c1ccccc1 | 3.15 µM (inactive) | 7.03 µM (inactive) | 1.95 µM (inactive) | 1.36 µM (inactive) | 1.75 µM (inactive) | 2.33 µM (inactive) | 3 µM (inactive) | 2.43 µM (inactive) | 8.17 µM (inactive) | 2.82 µM (inactive) | 1.36 µM (inactive) | 1.98 µM (inactive) | 3.03 µM (inactive) | 1.63 µM (inactive) | 0.324 µM (active) | 9.66 µM (inactive) | 3.94 µM (inactive) | 1.24 µM (inactive) | 1.58 µM (inactive)
9 | O=C(O)CCc1ccc(-c2ccccc2)[nH]1 | > 100 µM (inactive) | > 100 µM (inactive) | > 100 µM (inactive) | > 100 µM (inactive) | > 100 µM (inactive) | > 100 µM (inactive) | > 100 µM (inactive) | > 100 µM (inactive) | > 100 µM (inactive) | > 100 µM (inactive) | > 100 µM (inactive) | > 100 µM (inactive) | > 100 µM (inactive) | > 100 µM (inactive) | > 100 µM (inactive) | > 100 µM (inactive) | > 100 µM (inactive) | > 100 µM (inactive) | > 100 µM (inactive)
10 | N#[N+]c1cc2c(cc1Br)-c1ccccc1C2 | > 100 µM (inactive) | > 100 µM (inactive) | > 100 µM (inactive) | 58.2 µM (inactive) | > 100 µM (inactive) | 0.413 µM (active) | > 100 µM (inactive) | > 100 µM (inactive) | > 100 µM (inactive) | 51.6 µM (inactive) | 10.3 µM (inactive) | 83.9 µM (inactive) | > 100 µM (inactive) | 44.9 µM (inactive) | 51.4 µM (inactive) | 97.5 µM (inactive) | > 100 µM (inactive) | 81.8 µM (inactive) | 47.1 µM (inactive)
11 | CCc1c[n+]2c(cc1C1=CN3c4ccccc4[C@]45CCN6C/C(=C/CO)[C@H](C[C@H]64)[C@@H]([C@@H]1O)[C@H]35)-c1[nH]c3ccccc3c1CC2 | > 50 µM (inactive) | > 50 µM (inactive) | > 50 µM (inactive) | > 50 µM (inactive) | > 50 µM (inactive) | > 50 µM (inactive) | > 50 µM (inactive) | > 50 µM (inactive) | > 50 µM (inactive) | > 50 µM (inactive) | > 50 µM (inactive) | > 50 µM (inactive) | > 50 µM (inactive) | > 50 µM (inactive) | > 50 µM (inactive) | > 50 µM (inactive) | > 50 µM (inactive) | > 50 µM (inactive) | > 50 µM (inactive)
12 | COc1c(C)c(OC)c(C(=O)CC(C)C)c(OC)c1C | 23.6 µM (inactive) | > 100 µM (inactive) | > 100 µM (inactive) | > 100 µM (inactive) | > 100 µM (inactive) | 21.4 µM (inactive) | – | 63.4 µM (inactive) | > 100 µM (inactive) | > 100 µM (inactive) | 43.7 µM (inactive) | > 100 µM (inactive) | > 100 µM (inactive) | > 100 µM (inactive) | 7.01 µM (inactive) | > 100 µM (inactive) | > 100 µM (inactive) | > 100 µM (inactive) | > 100 µM (inactive)
13 | CCC(O)(Cc1ccc(OC)cc1)c1ccc(OC)cc1 (configuration not stated) | 84.7 µM (inactive) | > 100 µM (inactive) | – | > 100 µM (inactive) | > 100 µM (inactive) | 0.0641 µM (active) | > 100 µM (inactive) | > 100 µM (inactive) | > 100 µM (inactive) | > 100 µM (inactive) | > 100 µM (inactive) | > 100 µM (inactive) | > 100 µM (inactive) | > 100 µM (inactive) | > 100 µM (inactive) | > 100 µM (inactive) | > 100 µM (inactive) | > 100 µM (inactive) | > 100 µM (inactive)
14 | COc1ccc2c(c1OC)C(=O)O[C@@H]2[C@H]1c2cc3c(cc2CCN1C)OCO3 | > 100 µM (inactive) | > 100 µM (inactive) | – | > 100 µM (inactive) | > 100 µM (inactive) | > 100 µM (inactive) | > 100 µM (inactive) | > 100 µM (inactive) | > 100 µM (inactive) | > 100 µM (inactive) | > 100 µM (inactive) | > 100 µM (inactive) | > 100 µM (inactive) | > 100 µM (inactive) | > 100 µM (inactive) | > 100 µM (inactive) | > 100 µM (inactive) | > 100 µM (inactive) | > 100 µM (inactive)
15 | O=C(CCc1ccc(O)c(O)c1)NCCc1cc(O)cc(OCc2ccccc2)c1 | – | 46.7 µM (inactive) | 44.3 µM (inactive) | 5.14 µM (inactive) | 24.9 µM (inactive) | 21.1 µM (inactive) | 22.2 µM (inactive) | 38.9 µM (inactive) | > 100 µM (inactive) | 58.7 µM (inactive) | 14 µM (inactive) | 43.1 µM (inactive) | 31.4 µM (inactive) | 31.3 µM (inactive) | 10.9 µM (inactive) | 12.6 µM (inactive) | 8.75 µM (inactive) | 27.2 µM (inactive) | > 100 µM (inactive)
